Source: ChEMBL document CHEMBL3885861, “Open TG-GATES”

Organism: Rattus norvegicus
Experiment: Open TG-GATES - Regimen: Single
Format: toxicity, organism-based, Sprague-Dawley
Parameters: regimen Single, gender Male, age 6 weeks
Settings: in vivo, po, 75 mg/kg, route gavage, dose level High; for APTT / Bas / Eos / Fbg / Hb / Ht / Lym / MCH / MCHC / MCV / Mono / Neu / PT / Plat / RBC / Ret / WBC: tissue Blood; for KIDNEY_L / KIDNEY_R / KIDNEY_TOTAL: tissue Kidney; for LIVER: tissue Liver; for A/G / ALP / ALT / AST / BUN / CRE / Ca / Cl / DBIL / GLC / IP / K / LDH / Na / PL / RALB / TBIL / TC / TG / TP / gamma-GTP: tissue Plasma

Work on NC1=NC(=O)C(c2ccccc2)O1 (configuration not stated) [PEMOLINE] yielded a TERMINAL_BW (3 h) of 208.2 g, an APTT (3 h) of 16.9 s and a Bas (3 h) of 0%. For the same molecule, the Eos (3 h) was 0.8%, the Fbg (3 h) was 306.8 mg/dL and the Hb (3 h) was 13.3 g/dL. For the same molecule, the Ht (3 h) was 39.3%, the Lym (3 h) was 74.8% and the MCH (3 h) was 21.9 pg. It also gave an MCHC (3 h) of 33.9%, an MCV (3 h) of 64.8 fL and a Mono (3 h) of 2.6%. For the same molecule, the Neu (3 h) was 20.8%, the PT (3 h) was 13.3 s and the Plat (3 h) was 129.3 x10_4/uL. For the same molecule, the RBC (3 h) was 606.8 x10_4/ul, the Ret (3 h) was 9.4% and the WBC (3 h) was 99.2 x10_2/uL. It also gave a KIDNEY_L (3 h) of 0.9 g, a KIDNEY_R (3 h) of 0.9 g and a KIDNEY_TOTAL (3 h) of 1.7 g. The LIVER (3 h) was 8.9 g, the A/G (3 h) was 1 and the ALP (3 h) was 1509.8 IU/L. The ALT (3 h) was 46.4 IU/L, the AST (3 h) was 87.6 IU/L and the BUN (3 h) was 7.8 mg/dL. The CRE (3 h) was 0.2 mg/dL, the Ca (3 h) was 10.4 mg/dL and the Cl (3 h) was 108.2 meq/L. The DBIL (3 h) was 0.012 mg/dL, the GLC (3 h) was 188.6 mg/dL and the IP (3 h) was 8.2 mg/dL. The K (3 h) was 3.7 meq/L, the LDH (3 h) was 74.6 IU/L and the Na (3 h) was 141.6 meq/L. The PL (3 h) was 132.8 mg/dL, the RALB (3 h) was 2.8 g/dL and the TBIL (3 h) was 0.042 mg/dL. It also gave a TC (3 h) of 80 mg/dL, a TG (3 h) of 36.8 mg/dL and a TP (3 h) of 5.5 g/dL. It also gave a gamma-GTP (3 h) of 1.8 IU/L, a TERMINAL_BW (6 h) of 208.1 g and an APTT (6 h) of 17.1 s. For the same molecule, the Bas (6 h) was 0%, the Eos (6 h) was 1% and the Fbg (6 h) was 280.8 mg/dL. It also gave a Hb (6 h) of 13.6 g/dL, a Ht (6 h) of 40.2% and a Lym (6 h) of 75.2%. For the same molecule, the MCH (6 h) was 22 pg, the MCHC (6 h) was 33.9% and the MCV (6 h) was 64.9 fL. It also gave a Mono (6 h) of 3%, a Neu (6 h) of 20% and a PT (6 h) of 13.6 s. For the same molecule, the Plat (6 h) was 118.6 x10_4/uL, the RBC (6 h) was 620.2 x10_4/ul and the Ret (6 h) was 9.3%. It also gave a WBC (6 h) of 89.6 x10_2/uL, a KIDNEY_L (6 h) of 0.9 g and a KIDNEY_R (6 h) of 0.9 g. The KIDNEY_TOTAL (6 h) was 1.8 g, the LIVER (6 h) was 7.6 g and the A/G (6 h) was 1. For the same molecule, the ALP (6 h) was 1507.8 IU/L, the ALT (6 h) was 40.6 IU/L and the AST (6 h) was 104.8 IU/L. The BUN (6 h) was 9 mg/dL, the CRE (6 h) was 0.2 mg/dL and the Ca (6 h) was 10.3 mg/dL. For the same molecule, the Cl (6 h) was 108.4 meq/L, the DBIL (6 h) was 0.01 mg/dL and the GLC (6 h) was 168.8 mg/dL. The IP (6 h) was 9.3 mg/dL, the K (6 h) was 3.7 meq/L and the LDH (6 h) was 110.8 IU/L. It also gave a Na (6 h) of 140.8 meq/L, a PL (6 h) of 119 mg/dL and an RALB (6 h) of 2.7 g/dL. For the same molecule, the TBIL (6 h) was 0.05 mg/dL, the TC (6 h) was 77.4 mg/dL and the TG (6 h) was 14 mg/dL. The TP (6 h) was 5.4 g/dL, the gamma-GTP (6 h) was 1 IU/L and the TERMINAL_BW (9 h) was 209.6 g. The APTT (9 h) was 17.2 s, the Bas (9 h) was 0% and the Eos (9 h) was 0.6%. The Fbg (9 h) was 330.2 mg/dL, the Hb (9 h) was 13.7 g/dL and the Ht (9 h) was 40.1%. For the same molecule, the Lym (9 h) was 71.6%, the MCH (9 h) was 22.2 pg and the MCHC (9 h) was 34.2%. The MCV (9 h) was 65 fL, the Mono (9 h) was 2.2% and the Neu (9 h) was 25%. The PT (9 h) was 13.1 s, the Plat (9 h) was 113 x10_4/uL and the RBC (9 h) was 617.8 x10_4/ul. It also gave a Ret (9 h) of 9.2%, a WBC (9 h) of 80.9 x10_2/uL and a KIDNEY_L (9 h) of 0.9 g. The KIDNEY_R (9 h) was 0.9 g, the KIDNEY_TOTAL (9 h) was 1.8 g and the LIVER (9 h) was 7.3 g. For the same molecule, the A/G (9 h) was 1, the ALP (9 h) was 1405.6 IU/L and the ALT (9 h) was 34.4 IU/L. It also gave an AST (9 h) of 89 IU/L, a BUN (9 h) of 9 mg/dL and a CRE (9 h) of 0.2 mg/dL. The Ca (9 h) was 10.3 mg/dL, the Cl (9 h) was 107.8 meq/L and the DBIL (9 h) was 0.01 mg/dL. It also gave a GLC (9 h) of 190.4 mg/dL, an IP (9 h) of 10.4 mg/dL and a K (9 h) of 3.5 meq/L. The LDH (9 h) was 82 IU/L, the Na (9 h) was 141.2 meq/L and the PL (9 h) was 122.2 mg/dL. The RALB (9 h) was 2.9 g/dL, the TBIL (9 h) was 0.044 mg/dL and the TC (9 h) was 75.6 mg/dL. It also gave a TG (9 h) of 9.4 mg/dL, a TP (9 h) of 5.7 g/dL and a gamma-GTP (9 h) of 1.2 IU/L. It also gave a TERMINAL_BW (24 h) of 200.9 g, an APTT (24 h) of 15.7 s and a Bas (24 h) of 0%. For the same molecule, the Eos (24 h) was 1%, the Fbg (24 h) was 324.8 mg/dL and the Hb (24 h) was 13.3 g/dL. It also gave a Ht (24 h) of 38.1%, a Lym (24 h) of 78.8% and an MCH (24 h) of 21.9 pg. For the same molecule, the MCHC (24 h) was 34.8%, the MCV (24 h) was 62.9 fL and the Mono (24 h) was 2.2%. The Neu (24 h) was 17.6%, the PT (24 h) was 13.1 s and the Plat (24 h) was 112.1 x10_4/uL. It also gave an RBC (24 h) of 606.6 x10_4/ul, a Ret (24 h) of 8.5% and a WBC (24 h) of 84.2 x10_2/uL. It also gave a KIDNEY_L (24 h) of 0.9 g, a KIDNEY_R (24 h) of 0.9 g and a KIDNEY_TOTAL (24 h) of 1.9 g. It also gave an LIVER (24 h) of 8.6 g, an A/G (24 h) of 1 and an ALP (24 h) of 1471 IU/L. It also gave an ALT (24 h) of 40.8 IU/L, an AST (24 h) of 92.6 IU/L and a BUN (24 h) of 14 mg/dL. It also gave a CRE (24 h) of 0.2 mg/dL, a Ca (24 h) of 10.6 mg/dL and a Cl (24 h) of 104.8 meq/L. The DBIL (24 h) was 0.014 mg/dL, the GLC (24 h) was 177.6 mg/dL and the IP (24 h) was 8.6 mg/dL. It also gave a K (24 h) of 4.1 meq/L, an LDH (24 h) of 66.2 IU/L and a Na (24 h) of 141.4 meq/L. For the same molecule, the PL (24 h) was 127.6 mg/dL, the RALB (24 h) was 2.7 g/dL and the TBIL (24 h) was 0.038 mg/dL. For the same molecule, the TC (24 h) was 80.4 mg/dL, the TG (24 h) was 38.2 mg/dL and the TP (24 h) was 5.4 g/dL. It also gave a gamma-GTP (24 h) of 1 IU/L.
